Where a name gives a salt, the structure may show the parent alone.
Tests used:
[1] = test system: A549-ACE2 infected with SARS-CoV-2; assay: morphology score (similarity to uninfected cells); higher = more like uninfected cells; conditions: 24 h
[2] = test system: A549-ACE2 infected with SARS-CoV-2; assay: cell count relative to DMSO; higher = less toxic; conditions: 24 h
HepG2 [3] = assay: relative viability EC50 (midpoint between 100% and the lowest measured viability); higher = less toxic; conditions: 72 h
Vero E6 [4] = assay: as above; conditions: 72 h
Calu-3 [5] = assay: as above; conditions: 72 h
[6] = test system: A549-ACE2 infected with SARS-CoV-2; assay: SARS-CoV-2 infection rate relative to DMSO; higher = more infection; conditions: 24 h
Caco-2 [7] = assay: drug sensitivity score (DSS) for viability; higher = more toxic; extreme values may be limits of the assay; conditions: 72 h
HepG2 [8] = assay: as above; conditions: 72 h
Vero E6 [9] = assay: as above; conditions: 72 h
Calu-3 [10] = assay: as above; conditions: 72 h
A549-ACE2 [11] = assay: drug-induced phospholipidosis relative to tamoxifen; higher = more phospholipidosis
Caco-2 [12] = assay: cell viability relative to DMSO; higher = less toxic; conditions: 72 h
HepG2 [13] = assay: as above; conditions: 72 h
Vero E6 [14] = assay: as above; conditions: 72 h
Calu-3 [15] = assay: as above; conditions: 72 h
A549-ACE2 [16] = assay: phospholipidosis EC50; higher = less potent phospholipidosis inducer
Caco-2 [17] = assay: relative viability EC50 (midpoint between 100% and the lowest measured viability); higher = less toxic; conditions: 72 h
U2OS [18] = assay: as above; conditions: 72 h
U2OS [19] = assay: drug sensitivity score (DSS) for viability; higher = more toxic; extreme values may be limits of the assay; conditions: 72 h
U2OS [20] = assay: cell viability relative to DMSO; higher = less toxic; conditions: 72 h

CC/C(=C(\c1ccc(O)cc1)c1ccc(OCCNC)cc1)c1ccccc1 [Endoxifen HCl]
Conditions | SARS-CoV-2 infection rate [%] | cell count [%] | cell viability [%] | morphology score | phospholipidosis EC50 [µM]
A549-ACE2 [16], 24 h | – | – | – | – | 1.9
A549-ACE2 [16], 48 h | – | – | – | – | 3
A549-ACE2 [16], 72 h | – | – | – | – | 3.1
Caco-2 [12], 1 nM | – | – | 104 | – | –
Caco-2 [12], 10 nM | – | – | 115 | – | –
Caco-2 [12], 100 nM | – | – | 106 | – | –
Caco-2 [12], 1000 nM | – | – | 105 | – | –
Caco-2 [12], 10000 nM | – | – | 53.6 | – | –
Calu-3 [15], 1 nM | – | – | 102 | – | –
Calu-3 [15], 10 nM | – | – | 94 | – | –
Calu-3 [15], 100 nM | – | – | 96.6 | – | –
Calu-3 [15], 1000 nM | – | – | 100 | – | –
Calu-3 [15], 10000 nM | – | – | 5.1 | – | –
HepG2 [13], 1 nM | – | – | 110 | – | –
HepG2 [13], 10 nM | – | – | 95.4 | – | –
HepG2 [13], 100 nM | – | – | 103 | – | –
HepG2 [13], 1000 nM | – | – | 105 | – | –
HepG2 [13], 10000 nM | – | – | 36.5 | – | –
Vero E6 [14], 1 nM | – | – | 103 | – | –
Vero E6 [14], 10 nM | – | – | 105 | – | –
Vero E6 [14], 100 nM | – | – | 103 | – | –
Vero E6 [14], 1000 nM | – | – | 99.9 | – | –
Vero E6 [14], 10000 nM | – | – | 91.1 | – | –
[1], 0.3 µM | – | – | – | 0.02 | –
[1], 3 µM | – | – | – | 0.87 | –
[1], 10 µM | – | – | – | 0.84 | –
[1], 30 µM | – | – | – | -0.2 | –
[2], 0.3 µM | – | 98 | – | – | –
[2], 3 µM | – | 123 | – | – | –
[2], 10 µM | – | 118 | – | – | –
[2], 30 µM | – | 25 | – | – | –
[6], 0.3 µM | 100 | – | – | – | –
[6], 3 µM | 30 | – | – | – | –
[6], 10 µM | 8 | – | – | – | –
[6], 30 µM | 86 | – | – | – | –

Conditions | drug sensitivity score | relative viability EC50 [nM]
Caco-2 [7] | 2.1 | –
Calu-3 [5] | – | 3190
Calu-3 [10] | 5.3 | –
HepG2 [3] | – | 3530
HepG2 [8] | 3.1 | –
Vero E6 [4] | – | > 10000
Vero E6 [9] | 0 | –

drug-induced phospholipidosis [%], A549-ACE2 [11]
Conditions | 0.3 µM | 0.833333 µM | 3.33333 µM | 6.66667 µM | 10 µM
24 h | 5.89 | 13.1 | 65.7 | 78.7 | 78.6
48 h | 5.61 | 7.92 | 62.4 | 83.1 | 77.4
72 h | 8.35 | 4.33 | 55.2 | 86.8 | 88.4

CC(C)C[C@@H](C=O)NC(=O)[C@H](CC(C)C)NC(=O)[C@H](CC(C)C)NC(=O)OCc1ccccc1 [MG-132]
Conditions | SARS-CoV-2 infection rate, [6] [%] | cell count, [2] [%] | cell viability, Caco-2 [12] [%] | cell viability, Calu-3 [15] [%] | cell viability, HepG2 [13] [%] | cell viability, U2OS [20] [%] | cell viability, Vero E6 [14] [%] | morphology score, [1]
1 nM | – | – | 99.9 | 96.6 | 102 | 99.8 | 93.1 | –
10 nM | – | – | 103 | 113 | 97 | 99.7 | 100 | –
100 nM | – | – | 94.5 | 102 | 107 | 95.7 | 104 | –
0.3 µM | 38 | 109 | – | – | – | – | – | 0.7
1000 nM | – | – | 17.4 | 23 | 22.1 | 9.3 | 48.5 | –
3 µM | 9 | 37 | – | – | – | – | – | 0.33
10 µM | 20 | 22 | – | – | – | – | – | 0.22
10000 nM | – | – | 5.2 | 3.7 | -0.1 | -0.1 | 4.4 | –
30 µM | 30 | 14 | – | – | – | – | – | 0.18

Conditions | drug sensitivity score | relative viability EC50 [nM]
Caco-2 [7] | 15.8 | –
Caco-2 [17] | – | 391
Calu-3 [5] | – | 578
Calu-3 [10] | 14.2 | –
HepG2 [3] | – | 611
HepG2 [8] | 14.4 | –
U2OS [18] | – | 377
U2OS [19] | 17 | –
Vero E6 [4] | – | 940
Vero E6 [9] | 11.6 | –

A549-ACE2 [11], 24 h
Conditions | drug-induced phospholipidosis [%]
0.3 µM | 21.5
0.833333 µM | 10.6

Source: the supplement of paper PMC13380429
